A melting point compilation (Tetko et al.; mined from patent text by program, amines drawn as free bases though some values may be those of a salt)

melting point [°C] | SMILES
168 | COC(=O)N(C(=O)NN=C1c2ccc(Cl)cc2CC1(O)C(=O)OC)c1ccc(OC(F)(F)F)cc1 (stereo unspecified)
261 to 263 | O=Cc1ccc(-n2ncc3sc4ccccc4c32)cc1
116 | COCCN(C)C(=O)COc1cc(-c2ccc(C)cc2)nc2cccc(C(F)(F)F)c12
208 to 210 | c1coc(-c2ccc3c(n2)[nH]c2ccccc23)c1
46 to 47 | Cc1cc(C)c2c(c1)OCC2c1ccc(C(C)C)cc1 (stereo unspecified)
71 | Cc1cccc(-c2nc3ccc(OCCN(C)C)cc3n2Cc2ccccc2Br)c1
192 to 194 | Cc1ccc(Sc2cncc3sc(C(N)=O)cc23)cc1C
178 to 180 | c1cc(-c2csc(Cc3ncc[nH]3)n2)ccn1
168 to 170 | COC(=O)C1=C(C)N(CCCN2CCCCC2)c2cc[nH]c(=O)c2C1c1ccccc1C(F)(F)F (stereo unspecified)
147 to 148 | c1ccc(-c2cccc(-n3cnc4cc(-n5cccc5)ccc43)c2)nc1
158 to 160 | Cc1cc(O)c(Oc2ccccc2C#N)cc1-n1cccc1
241 to 243 | Cc1cc(=O)n(C)c2c(C)cc(C(O)(C(F)(F)F)C(F)(F)F)cc12
65 to 66 | CNCc1nnc(-c2ccc3occ(-c4cccc(OC(F)(F)F)c4)c3c2)o1
285 to 287 | O=C(O)c1ccc2c(c1)C(=O)C(=Cc1ccccc1)O2
164 to 167 | CCOC(=O)C(C)(C)c1nsc2ccc(-n3c(=O)cc(C(F)(F)F)n(C)c3=O)cc12
> 260 | O=C(Nc1cccc2[nH]ccc12)c1cc([N+](=O)[O-])ccc1O
165 to 167 | CC(=O)c1cc(Nc2ccn(-c3ccccc3)n2)ccc1O
119 to 121 | CN1CCC(C2=Nc3ccccc3N(C)c3ccccc32)CC1

melting point [°C] | SMILES
251 to 252 | Cc1ccc(-c2c(C(=O)Nc3nccs3)nc(-c3cccc4ccccc34)n2C)cc1
190 | NC(=O)c1nccn1C1Cc2ccc(Cl)cc2C1=O (stereo unspecified)
90 to 92 | S=c1nc2c(-c3ccccc3)cccn2c(=S)n1-c1ncccc1-c1ccccc1
> 250 | Nc1nc(=Nc2ccccc2)n2c(n1)sc1ccccc12
123 to 124 | CN(C)CCCOc1ccc(Nc2nccc(-c3ccncc3)n2)cc1
303 | O=C(O)c1cn(-c2ccc(F)cc2)c2c(F)c(N3CCC(n4ccnn4)C3)c(F)cc2c1=O (stereo unspecified)
145 to 146 | Cc1ccc2c(c1)nc(/C=C/c1ccccc1)n2-c1ccccn1
279 to 281 | O=[N+]([O-])c1cc(-c2csc(-c3cccnc3)n2)cc(O)c1O
89 to 90 | CC(O)c1cccc2cccc(O)c12 (stereo unspecified)
99 to 101 | O=C1CCc2ccc(OCc3ccccc3)cc21
82 | CC(C(=O)NCCCC(F)(F)F)(c1ccccc1)c1ccccc1
136 | FC(F)(F)c1ccc(-c2cc(C(F)(F)F)n3ncc(Br)c3n2)cc1
150 to 152 | CN(C)NC(=O)c1ccc(-c2ccc(Cl)cc2)o1
222 to 224 | Cn1c(=O)c2c(nc(C=Cc3cccc(N)c3)n2C)n(C)c1=O
158 to 159 | O=C(O)CCCCCc1oc(-n2cnc3ccccc32)nc1-c1ccc(Cl)cc1
209 to 210 | CCc1nc2c(c(=O)n(C)c(=O)n2-c2ccc(Cl)cc2Cl)n1Cc1ccc(OC)cc1
178 to 185 | CC(=O)CC(=S)N1N=C(c2ccc([N+](=O)[O-])cc2)c2cc3c(cc2CC1C)OCO3 (stereo unspecified)
164 to 167 | O=C(c1ccc(Cl)cn1)c1ccc(Cl)cn1

Continued, compound first:

SMILES | melting point [°C]
CC(C)c1nc(CN(C(=O)N[C@H](C(=O)N[C@@H](Cc2ccccc2)C[C@H](O)[C@H](Cc2ccccc2)NC(=O)OCc2cncs2)C(C)C)C2CC2)cs1 | 65 to 66
Nc1sc2c(c1C(=O)c1ccc(OCc3ccccc3)cc1)CCN(C(=O)OCc1ccccc1)C2 | 151 to 152
CCOCCn1cc2c(C3C(=O)Nc4ccc(Cl)cc43)nc(Cl)nc2n1 (stereo unspecified) | > 300
CCC(C)(C)c1ccc(OCCCNC(=O)c2cc(OCCS(=O)(=O)CC)c3ccccc3c2O)c(C(C)(C)CC)c1 | 155 to 157
Cc1oc(-c2ccccc2)nc1COc1ccc2cc(CC3OC(=O)NC3=O)oc2c1 (stereo unspecified) | 172 to 173
Cc1cc(CBr)cc(CBr)c1 | 65 to 66
Cc1cc(C(C)(C)C)c(OC(=O)c2ccccc2C(=O)Oc2c(C(C)(C)C)cc(C)cc2C(C)(C)C)c(C(C)(C)C)c1 | 262 to 265
CCOC(=O)C(C)(C)C(=O)C(Oc1ccc(Cl)cc1)n1cncn1 (stereo unspecified) | 88 to 89
CC(=O)NC[C@H]1CN(c2ccc3c(c2)CC(C)N3C(=O)OCc2ccccc2)C(=O)O1 (stereo partly specified) | 170 to 175
C=C(COC1CC2C3CCC4=CC(=O)CCC4(C)C3(F)C(O)CC2(C)C1(O)C(=O)CO)c1ccccc1 (stereo unspecified) | 169 to 171
CCCCCCCNC(=O)CCCCCCCSc1nc(-c2ccccc2)c(-c2ccccc2)[nH]1 | 119 to 120
CCCCNC(=O)C(=O)NCCCCCBr | 109 to 110
COCCCc1cc(F)c2ncc(C(=O)NCc3ccc(Cl)cc3)c(O)c2c1 | 189 to 192
N=C1NCCCN1Cc1ccc(Cl)nc1 | 220
C=CC(=O)NCc1ccc(CC(=O)OCC)cc1 | 93 to 95
CC1=C(C(=O)OC(C)C)C(c2cccc([N+](=O)[O-])c2)N(C(=O)NOCc2ccccc2)C(=O)N1 (stereo unspecified) | 166 to 167
COC(=O)CCC(=O)Nc1cccnc1 | 78 to 79
Cc1ccc(C(C=NO)=NO)cc1 | 170 to 176
CS(=O)(=O)Nc1cc([C@@H](O)CNC2CCN(c3ccc(/C=C/C(=O)O)cc3)CC2)ccc1O | 220
CCC(C)(C)Nc1c(NCc2cc(C)ccc2C)c(=O)c1=O | 199 to 200
CCOC(=O)C1COc2ccc(Cl)c(Cl)c2O1 (stereo unspecified) | 92 to 94
Cc1ccc(C(=O)CCCCC(=O)O)cc1 | 147 to 148

SMILES | melting point [°C]
Cc1csc(C)c1NC(=O)CO | 85 to 87
O=C1Nc2c(ccc3c2CCCC3)SC1CCCBr (stereo unspecified) | 122 to 123
CC(=O)c1ccc(CC(C)NCC(O)c2ccccc2)cc1 (stereo unspecified) | 120 to 135
Cc1ccccc1C(=NC#N)NC(NC(=O)Cc1ccc(Cl)cc1)C(C)(C)C (stereo unspecified) | 109 to 110
Nc1cccc2c1C(=O)c1c(N)cccc1C2=O | 272 to 273
COc1ccc(S(=O)(=O)Nc2c(C(=O)NO)cc(C)c(Cc3ccccc3)c2C#N)cc1 | 175
CO/N=C(/C(C)=O)C(=O)OC(C)(C)C | 80 to 85
Cc1c(Br)c2c(c(C)c1NC(=O)OC(C)(C)C)CCO2 | 176 to 177
C=CCOCC(CC)(COCC=C)C(NC(=O)c1ccc(Cl)cc1)NC(=N[N+](=O)[O-])Nc1cccnc1 (stereo unspecified) | 175 to 180
N#Cc1cnc2cnc(F)cc2c1Cl | 150 to 155
CCCc1c(OCC(O)CSCCN(C)C)ccc(C(C)=O)c1O (stereo unspecified) | 54 to 55
O=[N+]([O-])c1ccccc1OC1SCC(O)C(O)C1O (stereo unspecified) | 137 to 140
O=C1CCCCCCCCCCC(=O)OCCC1 | 33
CCOC(=O)c1ccc(N)c(CNC(C)(C)C)c1 | 77 to 79
CCCCCCCCNc1ccc(NCCCCCCCC)c2c1C(=O)c1ccccc1C2=O | 72 to 74
Cc1c[nH]n(Cc2ccc(Cl)c(Cl)c2)c1=O | 156
CN1CCN(C2(CNC(=O)c3ccc(Cl)c(Cl)c3)CCCCC2)CC1 | 143 to 146
COc1ccc(C[C@@H](NC(=O)C2CCCCC2)[C@@H](O)c2ccc(F)cc2)cc1 (racemic) | 193 to 194
CC(C)CCNC(=O)C(c1ccccc1)c1ccccc1 | 128
O=C1c2cc(OCc3ccc4ccccc4n3)ccc2CC1Cc1ccccc1 (stereo unspecified) | 104 to 106
CCC(=O)Nc1nc(C)c(C(=O)NCc2ccccc2)s1 | 175 to 176
Cc1ccc2c(c1)c1c(n2CCBr)C(=O)CCC1 | 102 to 103

SMILES | melting point [°C]
N[C@@]1(C(=O)O)C[C@H](NC(=O)Nc2cccc3ccccc23)[C@H]2[C@H](C(=O)O)[C@H]21 (relative stereo) | > 275
COC(=O)c1ccc(-n2cccc2C=O)cc1 | 103 to 105
O=C(CN1C(=O)C(NC(=O)n2ccnc2)N=C(c2ccccc2F)c2ccccc21)N1CC2CCC(CC2)C1 (racemic) | 235 to 237
Cc1cc(CCCCCCc2c(Cl)cc(C3=NCCO3)cc2Cl)on1 | 65 to 66
COC(OC)/C(=C/c1ccc(Cl)cc1Cl)c1ccc(Cl)cc1 | 87 to 90
Cc1[nH]c(=O)n(-c2cc(C(=O)OC(C)C)c(Cl)cc2F)c(=O)c1Br | 187 to 189
CC1(C)C(=O)Nc2cc3oc(-c4csnn4)nc3cc21 | > 250
CCCCCCCCCCCCCCCCCCNC(=O)N1CCN(C(=O)c2ccc(CCl)cc2)CC1 | 68 to 70
CCCC(=NOCC)C1=C(O)CC(c2c(C)c(C)c(O)c(C)c2C)CC1=O (stereo unspecified) | 134
COCc1cc2c(C(=O)Nc3ccnn3C)ccc(OC)c2o1 | 148 to 150
CCOC(=O)c1csc(-c2cccs2)n1 | 72 to 73
CCOC(=O)c1cc(-c2ccncc2)[nH]c1N | 193 to 195
Cc1cc(Cl)c(C)cc1O | 74 to 75
NC(=O)c1ccc(Cl)c2c1CC([N+](=O)[O-])CO2 (stereo unspecified) | 193 to 194
COC(=O)c1c(OC)c(OC)c2oc(C)cc(=O)c2c1OC | 125
CCCCOC(=O)c1ccc(OCCCC)c(C(C)=O)c1 | 39 to 40
COc1ccc([C@@H]2Sc3cc(Oc4ccc(F)cc4)ccc3NC(=O)[C@@H]2O)cc1F | 222 to 224
Cc1nc2c(N)nc3ccccc3c2n1CCOCCNC(=O)Nc1ccccc1 | 193 to 195
Cc1c(NC(=O)CC(C)(C)C)cc2c(c1C)OC(C)(C)C2(O)c1ccc2ccccc2c1 (stereo unspecified) | 142 to 144
c1ccc(C(c2ccccc2)c2ccncc2)cc1 | 124 to 126
CCCCOc1cc(CCS(=O)(=O)NC(=O)OCC(C)(C)C)n(Cc2ccc(Cl)cc2Cl)n1 | 116 to 118
